In brackets after ≈: the same amount, converted by molar mass.
Columns and labels:
[1] = Water solubility comparison of PEGTA compounds and conventional BAPTA calcium indicator AM esters; type: physicochemical; conditions: PBS, AM ester; for solubility: aqueous buffer, 25° C., read-out: Water solubility at 25° C. (PEGTA Compound)
CHO-K1 cells = experiment: ATP-stimulated calcium response monitored with FlexStation; type: cell-based; conditions: in the absence of probenecid; compared with Fluo-4 AM
Experimental: (§1) CHO-K1 cells are seeded overnight at 50,000 cells per 100 μl per well in a 96-well black wall/clear bottom costar plate. The growth medium is removed, and the cells are incubated with 100 μl of Compound 24 and Fluo-4 AM at 5 μM in Hanks and Hepes buffer in the presence of 2.5 mM probenecid for 1 hour at 37° C., 5% CO2 incubator. ATP (10 μM) is added by FlexStation to stimulate cell calcium, and the time-dependent calcium response is monitored with FlexStation.
CHO-K1 cells are seeded overnight at 50,000 cells per 100 μl per well in a 96-well black wall/clear bottom costar plate. The growth medium is removed, and the cells are incubated with 100 μl of Compound 24 and Fluo-4 AM at 5 μM in Hanks and Hepes buffer for 2 hours at 25° C. ATP (50 μL/well) is added by FlexStation to achieve the final desired concentrations.
as §1, with “CHO-K” for “CHO-K1”, “FlexStation. […]” for “FlexStation.”

[2] = test system: CHO cells stably transfected with muscarinic receptor 1; experiment: Calcium flux assay, indicator AM esters loaded into cells, with or without probenecid; type: cell-based; conditions: probenecid is not used
Experimental: In some embodiments, the fluorescent ion indicators are used in a method to measure calcium flux. Cells (e.g., CHO cells) stably transfected with muscarinic receptor 1 are plated—e.g., at 60,000 cells per 100 μl per well in F12 with 5% FBS and 1% glutamine in a 96-well black wall/clear bottom Costar plate—and incubated (e.g., in 5% CO2 at 37° C. overnight). The growth medium is removed and the cells are incubated with a fluorescent ion indicator (e.g., with 100 μl/well of 1-8 μM Fluo-3 AM, Fluo-4 AM or one or more compounds selected from Compound 22, 23, 24, 28, 33, 34, 40, 41 or 188 in Hanks and HEPES buffer for 1 hour at 37° C., 5% CO2) with or without probenecid. Carbachol or ATP is added (e.g., 50 μl/well by NOVOstar, FlexStation or FLIPR) to achieve a final concentration.
Cells expressing a GPCR of interest that signals through calcium are pre-loaded with the indicator AM esters (such as Fluo-3 AM. Fluo-4 AM, Compounds 22, 23, 24, 28, 33, 34, 40, 41 or 188) which can cross cell membrane. […] When the sample cells are stimulated with screening compounds, the receptor triggers a release of intracellular calcium, which then greatly increases the fluorescence of the intracellular indicators. […]

Row | solubility [1] | Water solubility at 25° C. (BAPTA Compound) [1] | SMILES | fluorescence intensity enhancement upon calcium stimulation (CHO-K1 cells) | fluorescence intensity compared with the corresponding BAPTA compounds [2] | capability of detecting calcium [2]
1 | 1.63 µg/mL (≈ 1.49 µM) |  | CC(=O)OCOC(=O)CN(CCOCCOc1cc2c(cc1N(CC(=O)OCOC(C)=O)CC(=O)OCOC(C)=O)C(=O)OC21c2cc(F)c(OC(C)=O)cc2Oc2cc(OC(C)=O)c(F)cc21)CC(=O)OCOC(C)=O [Compound 22] |  |  | 
2 | 1.29 µg/mL (≈ 1.34 µM) |  | CC(=O)OCOC(=O)CN(CCOCCOc1cc(C2=C3C(C)=CC(C)=[N+]3[B-](F)(F)n3c(C)cc(C)c32)ccc1N(CC(=O)OCOC(C)=O)CC(=O)OCOC(C)=O)CC(=O)OCOC(C)=O [Compound 188] |  |  | 
3 |  | 1.26 μg/ml PBS | CC(=O)OCOC(=O)CN(CC(=O)OCOC(C)=O)c1ccc(C)cc1OCCOc1cc(-c2c3cc(F)c(=O)cc-3oc3cc(OCOC(C)=O)c(F)cc23)ccc1N(CC(=O)OCOC(C)=O)CC(=O)OCOC(C)=O [Fluo-4 AM, reference compound] |  |  | not capable of detecting calcium in some types of cells and tissues

Row | SMILES | solubility [1] | Water solubility at 25° C. (BAPTA Compound) [1] | fluorescence intensity enhancement upon calcium stimulation (CHO-K1 cells) | fluorescence intensity compared with the corresponding BAPTA compounds [2] | capability of detecting calcium [2]
4 | CC(=O)OCOC(=O)CN(CCOCCOc1cc(-c2c3cc(F)c(=O)cc-3oc3cc(OCOC(C)=O)c(F)cc23)ccc1N(CC(=O)OCOC(C)=O)CC(=O)OCOC(C)=O)CC(=O)OCOC(C)=O [Compound 24] | 2.18 µg/mL (≈ 2.11 µM) |  | unexpected better fluorescence intensity enhancement | much greater than that of the corresponding BAPTA compounds | 

— US9810700B1, “Fluorogenic calcium ion indicators and methods of using the same” (AAT Bioquest, Inc., priority 2017, dated 2017)
